Patent US7118895B2, “Process for producing aglycon by using diglycosidase and flavor-improved food containing the aglycon and converting agent to be used in the process” (Amano Enzyme Inc., priority 2000, dated 2006)

Test system: Crude diglycosidase
Experiment: Examination of pH in the conversion into isoflavone aglycons by diglycosidase using soybean materials
Type: biochemical, Penicillium multicolor IAM7153
Details: for existing ratio of aglycon of each isoflavone family / Decomposition efficiency of glycitin family in roasted soy flour / Decomposition efficiency of glycitin family in soymilk: 55° C.
Outline: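 Suspensions of 50 mg roasted soy flour, soymilk, defatted soybean or concentrated soy protein were brought to pH 2 to 11 with HCl or NaOH and reacted at 55° C with crude diglycosidase (enzyme solution at 1.88 AU/mL, same pH). Ethanol-stopped samples at 0, 1, 3 and 6 h were analysed by HPLC.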

[1] = pH6.6, heat treatment of enzyme: no, reaction time 0 h
[2] = pH6.6, heat treatment of enzyme: no, reaction time 1 h
[3] = pH6.6, heat treatment of enzyme: no, reaction time 3 h
[4] = pH6.6, heat treatment of enzyme: no, reaction time 6 h
[5] = pH6.6, heat treatment of enzyme: yes, reaction time 6 h

existing ratio of aglycon of each isoflavone family (concentrated soybean protein, pH 3.7 for 6 hours): 78%
existing ratio of aglycon of each isoflavone family (defatted soybean, pH 3.4 for 6 hours): 68%
Decomposition efficiency of glycitin family in concentrated soybean protein (pH1.6, heat treatment of enzyme: no, reaction time 0 h): 11.3%
Decomposition efficiency of glycitin family in concentrated soybean protein (pH1.6, heat treatment of enzyme: no, reaction time 1 h): 11.6%
Decomposition efficiency of glycitin family in concentrated soybean protein (pH1.6, heat treatment of enzyme: no, reaction time 3 h): 11.7%
Decomposition efficiency of glycitin family in concentrated soybean protein (pH1.6, heat treatment of enzyme: no, reaction time 6 h): 11.7%
Decomposition efficiency of glycitin family in concentrated soybean protein (pH1.6, heat treatment of enzyme: yes, reaction time 6 h): 10.8%
Decomposition efficiency of glycitin family in roasted soy flour (pH2, heat treatment of enzyme no, reaction time 0 h): 7.9
Decomposition efficiency of glycitin family in roasted soy flour (pH2, heat treatment of enzyme no, reaction time 1 h): 9.4
Decomposition efficiency of glycitin family in roasted soy flour (pH2, heat treatment of enzyme no, reaction time 3 h): 9.5
Decomposition efficiency of glycitin family in roasted soy flour (pH2, heat treatment of enzyme no, reaction time 6 h): 10.1
Decomposition efficiency of glycitin family in roasted soy flour (pH2, heat treatment of enzyme yes, reaction time 6 h): 10.4
Decomposition efficiency of glycitin family in soymilk (pH2.3, heat treatment of enzyme no, reaction time 0 h): 7.2
Decomposition efficiency of glycitin family in soymilk (pH2.3, heat treatment of enzyme no, reaction time 1 h): 48.7
Decomposition efficiency of glycitin family in soymilk (pH2.3, heat treatment of enzyme no, reaction time 3 h): 52.3
Decomposition efficiency of glycitin family in soymilk (pH2.3, heat treatment of enzyme no, reaction time 6 h): 53.5
Decomposition efficiency of glycitin family in soymilk (pH2.3, heat treatment of enzyme yes, reaction time 6 h): 6.9
Decomposition efficiency of glycitin family in defatted soybean (pH2.6, heat treatment of enzyme: no, reaction time 0 h): not detected
Decomposition efficiency of glycitin family in defatted soybean (pH2.6, heat treatment of enzyme: no, reaction time 1 h): not detected
Decomposition efficiency of glycitin family in defatted soybean (pH2.6, heat treatment of enzyme: no, reaction time 3 h): not detected
Decomposition efficiency of glycitin family in defatted soybean (pH2.6, heat treatment of enzyme: no, reaction time 6 h): not detected
Decomposition efficiency of glycitin family in defatted soybean (pH2.6, heat treatment of enzyme: yes, reaction time 6 h): not detected
Decomposition efficiency of glycitin family in concentrated soybean protein (pH2.7, heat treatment of enzyme: no, reaction time 0 h): 11.3%
Decomposition efficiency of glycitin family in concentrated soybean protein (pH2.7, heat treatment of enzyme: no, reaction time 1 h): 25.0%
Decomposition efficiency of glycitin family in concentrated soybean protein (pH2.7, heat treatment of enzyme: no, reaction time 3 h): 25.7%
Decomposition efficiency of glycitin family in concentrated soybean protein (pH2.7, heat treatment of enzyme: no, reaction time 6 h): 29.2%
Decomposition efficiency of glycitin family in concentrated soybean protein (pH2.7, heat treatment of enzyme: yes, reaction time 6 h): 11.5%
Decomposition efficiency of glycitin family in roasted soy flour (pH3, heat treatment of enzyme no, reaction time 0 h): 7.9
Decomposition efficiency of glycitin family in roasted soy flour (pH3, heat treatment of enzyme no, reaction time 1 h): 61.3
Decomposition efficiency of glycitin family in roasted soy flour (pH3, heat treatment of enzyme no, reaction time 3 h): 69.2
Decomposition efficiency of glycitin family in roasted soy flour (pH3, heat treatment of enzyme no, reaction time 6 h): 68.3
Decomposition efficiency of glycitin family in roasted soy flour (pH3, heat treatment of enzyme yes, reaction time 6 h): 9.3
Decomposition efficiency of glycitin family in defatted soybean (pH3.4, heat treatment of enzyme: no, reaction time 0 h): not detected
Decomposition efficiency of glycitin family in defatted soybean (pH3.4, heat treatment of enzyme: no, reaction time 1 h): not detected
Decomposition efficiency of glycitin family in defatted soybean (pH3.4, heat treatment of enzyme: no, reaction time 3 h): not detected
Decomposition efficiency of glycitin family in defatted soybean (pH3.4, heat treatment of enzyme: no, reaction time 6 h): not detected
Decomposition efficiency of glycitin family in defatted soybean (pH3.4, heat treatment of enzyme: yes, reaction time 6 h): not detected
Decomposition efficiency of glycitin family in soymilk (pH3.5, heat treatment of enzyme no, reaction time 0 h): 7.2
Decomposition efficiency of glycitin family in soymilk (pH3.5, heat treatment of enzyme no, reaction time 1 h): 78.1
Decomposition efficiency of glycitin family in soymilk (pH3.5, heat treatment of enzyme no, reaction time 3 h): 100.0
Decomposition efficiency of glycitin family in soymilk (pH3.5, heat treatment of enzyme no, reaction time 6 h): 100.0
Decomposition efficiency of glycitin family in soymilk (pH3.5, heat treatment of enzyme yes, reaction time 6 h): 7.6
Decomposition efficiency of glycitin family in concentrated soybean protein (pH3.7, heat treatment of enzyme: no, reaction time 0 h): 11.1%
Decomposition efficiency of glycitin family in concentrated soybean protein (pH3.7, heat treatment of enzyme: no, reaction time 1 h): 66.7%
Decomposition efficiency of glycitin family in concentrated soybean protein (pH3.7, heat treatment of enzyme: no, reaction time 3 h): 73.5%
Decomposition efficiency of glycitin family in concentrated soybean protein (pH3.7, heat treatment of enzyme: no, reaction time 6 h): 77.5%
Decomposition efficiency of glycitin family in concentrated soybean protein (pH3.7, heat treatment of enzyme: yes, reaction time 6 h): 11.3%
Decomposition efficiency of glycitin family in roasted soy flour (pH4, heat treatment of enzyme no, reaction time 0 h): 8.6
Decomposition efficiency of glycitin family in roasted soy flour (pH4, heat treatment of enzyme no, reaction time 1 h): 81.2
Decomposition efficiency of glycitin family in roasted soy flour (pH4, heat treatment of enzyme no, reaction time 3 h): 91.8
Decomposition efficiency of glycitin family in roasted soy flour (pH4, heat treatment of enzyme no, reaction time 6 h): 100.0
Decomposition efficiency of glycitin family in roasted soy flour (pH4, heat treatment of enzyme yes, reaction time 6 h): 9.0
Decomposition efficiency of glycitin family in soymilk (pH4.8, heat treatment of enzyme no, reaction time 0 h): 6.2
Decomposition efficiency of glycitin family in soymilk (pH4.8, heat treatment of enzyme no, reaction time 1 h): 63.0
Decomposition efficiency of glycitin family in soymilk (pH4.8, heat treatment of enzyme no, reaction time 3 h): 78.9
Decomposition efficiency of glycitin family in soymilk (pH4.8, heat treatment of enzyme no, reaction time 6 h): 91.7
Decomposition efficiency of glycitin family in soymilk (pH4.8, heat treatment of enzyme yes, reaction time 6 h): 6.5
Decomposition efficiency of glycitin family in defatted soybean (pH4.8, heat treatment of enzyme: no, reaction time 0 h): 36.0%
Decomposition efficiency of glycitin family in defatted soybean (pH4.8, heat treatment of enzyme: no, reaction time 1 h): 59.9%
Decomposition efficiency of glycitin family in defatted soybean (pH4.8, heat treatment of enzyme: no, reaction time 3 h): 62.5%
Decomposition efficiency of glycitin family in defatted soybean (pH4.8, heat treatment of enzyme: no, reaction time 6 h): 68.1%
Decomposition efficiency of glycitin family in defatted soybean (pH4.8, heat treatment of enzyme: yes, reaction time 6 h): 43.8%
Decomposition efficiency of glycitin family in roasted soy flour (pH5, heat treatment of enzyme no, reaction time 0 h): 8.6
Decomposition efficiency of glycitin family in roasted soy flour (pH5, heat treatment of enzyme no, reaction time 1 h): 77.1
Decomposition efficiency of glycitin family in roasted soy flour (pH5, heat treatment of enzyme no, reaction time 3 h): 93.5
Decomposition efficiency of glycitin family in roasted soy flour (pH5, heat treatment of enzyme no, reaction time 6 h): 100.0
Decomposition efficiency of glycitin family in roasted soy flour (pH5, heat treatment of enzyme yes, reaction time 6 h): 9.4
Decomposition efficiency of glycitin family in concentrated soybean protein (pH5.1, heat treatment of enzyme: no, reaction time 0 h): 11.1%
Decomposition efficiency of glycitin family in concentrated soybean protein (pH5.1, heat treatment of enzyme: no, reaction time 1 h): 62.1%
Decomposition efficiency of glycitin family in concentrated soybean protein (pH5.1, heat treatment of enzyme: no, reaction time 3 h): 73.4%
Decomposition efficiency of glycitin family in concentrated soybean protein (pH5.1, heat treatment of enzyme: no, reaction time 6 h): 78.5%
Decomposition efficiency of glycitin family in concentrated soybean protein (pH5.1, heat treatment of enzyme: yes, reaction time 6 h): 11.5%
Decomposition efficiency of glycitin family in defatted soybean (pH5.4, heat treatment of enzyme: no, reaction time 0 h): 36.0%
Decomposition efficiency of glycitin family in defatted soybean (pH5.4, heat treatment of enzyme: no, reaction time 1 h): 54.9%
Decomposition efficiency of glycitin family in defatted soybean (pH5.4, heat treatment of enzyme: no, reaction time 3 h): not detected
Decomposition efficiency of glycitin family in defatted soybean (pH5.4, heat treatment of enzyme: no, reaction time 6 h): 67.7%
Decomposition efficiency of glycitin family in defatted soybean (pH5.4, heat treatment of enzyme: yes, reaction time 6 h): 60.7%
Decomposition efficiency of glycitin family in soymilk (pH6.2, heat treatment of enzyme no, reaction time 0 h): 6.2
Decomposition efficiency of glycitin family in soymilk (pH6.2, heat treatment of enzyme no, reaction time 1 h): 53.6
Decomposition efficiency of glycitin family in soymilk (pH6.2, heat treatment of enzyme no, reaction time 3 h): 65.5
Decomposition efficiency of glycitin family in soymilk (pH6.2, heat treatment of enzyme no, reaction time 6 h): 70.4
Decomposition efficiency of glycitin family in soymilk (pH6.2, heat treatment of enzyme yes, reaction time 6 h): 8.2
Decomposition efficiency of glycitin family in roasted soy flour (pH6.5, heat treatment of enzyme no, reaction time 0 h): 8.8
Decomposition efficiency of glycitin family in roasted soy flour (pH6.5, heat treatment of enzyme no, reaction time 1 h): 65.0
Decomposition efficiency of glycitin family in roasted soy flour (pH6.5, heat treatment of enzyme no, reaction time 3 h): 80.3
Decomposition efficiency of glycitin family in roasted soy flour (pH6.5, heat treatment of enzyme no, reaction time 6 h): 88.1
Decomposition efficiency of glycitin family in roasted soy flour (pH6.5, heat treatment of enzyme yes, reaction time 6 h): 9.8
Decomposition efficiency of glycitin family in concentrated soybean protein [1]: 11.3%
Decomposition efficiency of glycitin family in defatted soybean [1]: 60.4%
Decomposition efficiency of glycitin family in concentrated soybean protein [2]: 42.2%
Decomposition efficiency of glycitin family in defatted soybean [2]: 47.1%
Decomposition efficiency of glycitin family in concentrated soybean protein [3]: 60.3%
Decomposition efficiency of glycitin family in defatted soybean [3]: 46.4%
Decomposition efficiency of glycitin family in concentrated soybean protein [4]: 68.1%
Decomposition efficiency of glycitin family in defatted soybean [4]: 41.9%
Decomposition efficiency of glycitin family in concentrated soybean protein [5]: 11.1%
Decomposition efficiency of glycitin family in defatted soybean [5]: 49.7%
Decomposition efficiency of glycitin family in soymilk (pH7.2, heat treatment of enzyme no, reaction time 0 h): 6.1
Decomposition efficiency of glycitin family in soymilk (pH7.2, heat treatment of enzyme no, reaction time 1 h): 51.2
Decomposition efficiency of glycitin family in soymilk (pH7.2, heat treatment of enzyme no, reaction time 3 h): 53.8
Decomposition efficiency of glycitin family in soymilk (pH7.2, heat treatment of enzyme no, reaction time 6 h): 58.4
Decomposition efficiency of glycitin family in soymilk (pH7.2, heat treatment of enzyme yes, reaction time 6 h): 5.6
Decomposition efficiency of glycitin family in defatted soybean (pH7.8, heat treatment of enzyme: no, reaction time 0 h): 33.2%
Decomposition efficiency of glycitin family in defatted soybean (pH7.8, heat treatment of enzyme: no, reaction time 1 h): 42.5%
Decomposition efficiency of glycitin family in defatted soybean (pH7.8, heat treatment of enzyme: no, reaction time 3 h): 46.8%
Decomposition efficiency of glycitin family in defatted soybean (pH7.8, heat treatment of enzyme: no, reaction time 6 h): 50.9%
Decomposition efficiency of glycitin family in defatted soybean (pH7.8, heat treatment of enzyme: yes, reaction time 6 h): 44.2%
Decomposition efficiency of glycitin family in roasted soy flour (pH8.5, heat treatment of enzyme no, reaction time 0 h): 9.6
Decomposition efficiency of glycitin family in roasted soy flour (pH8.5, heat treatment of enzyme no, reaction time 1 h): 28.2
Decomposition efficiency of glycitin family in roasted soy flour (pH8.5, heat treatment of enzyme no, reaction time 3 h): 40.1
Decomposition efficiency of glycitin family in roasted soy flour (pH8.5, heat treatment of enzyme no, reaction time 6 h): 47.4
Decomposition efficiency of glycitin family in roasted soy flour (pH8.5, heat treatment of enzyme yes, reaction time 6 h): 9.1
Decomposition efficiency of glycitin family in concentrated soybean protein (pH8.6, heat treatment of enzyme: no, reaction time 0 h): 11.7%
Decomposition efficiency of glycitin family in concentrated soybean protein (pH8.6, heat treatment of enzyme: no, reaction time 1 h): 15.4%
Decomposition efficiency of glycitin family in concentrated soybean protein (pH8.6, heat treatment of enzyme: no, reaction time 3 h): 21.0%
Decomposition efficiency of glycitin family in concentrated soybean protein (pH8.6, heat treatment of enzyme: no, reaction time 6 h): 30.9%
Decomposition efficiency of glycitin family in concentrated soybean protein (pH8.6, heat treatment of enzyme: yes, reaction time 6 h): 11.3%
Decomposition efficiency of glycitin family in soymilk (pH11.6, heat treatment of enzyme no, reaction time 0 h): 6.2
Decomposition efficiency of glycitin family in soymilk (pH11.6, heat treatment of enzyme no, reaction time 1 h): 49.6
Decomposition efficiency of glycitin family in soymilk (pH11.6, heat treatment of enzyme no, reaction time 3 h): 53.5
Decomposition efficiency of glycitin family in soymilk (pH11.6, heat treatment of enzyme no, reaction time 6 h): 56.0
Decomposition efficiency of glycitin family in soymilk (pH11.6, heat treatment of enzyme yes, reaction time 6 h): 5.8
existing ratio of aglycon of each isoflavone family (roasted soy flour, pH 4 for 6 hours): 100%
existing ratio of aglycon of each isoflavone family (soymilk, pH 3.5 for 6 hours): 100%
SMILES: COc1cc2c(=O)c(-c3ccc(O)cc3)coc2cc1O [glycitein]
